Test [1] has as its system primary mouse hippocampal neurons treated with murine-PFF. The experiment in a line: Primary neuron model of αSN PFF pathology. Conditions: 1 µM compound, co-treatment with murine-PFF for 12 days. It is filed as cell-based. From the text:
As described previously, numerous in vivo and in vitro alpha-synucleinopathy mouse models have been developed using treatment with sonicated αSN PFF to model pathology. PFF treatment of primary mouse hippocampal neurons results in neurotoxicity and increased phosphoserine-129 (pS^129) immunoreactivity, a marker for alpha-synucleinopathy pathology[87],[88]. These effects can be produced using either human-PFF or murine-PFF with the murine-PFF providing a stronger response. Primary neurons (7 days in vitro (DIV)) were treated for 12 days with murine-PFF or PBS and 1 µM hit compound or DMSO (compound vehicle). Neurons were fixed and stained for NeuN (neuronal nuclei), Map2 (neurite and neuronal morphology), and 81a (pS^129) (see Supplementary Fig. 16). […] Future studies focused on hit-to-lead optimization will focus on these nuances to resolve hit compound’s MOA.
Primary neuronal cultures were prepared from CD1 embryos on E16–18, as previously described. Primary mouse neuron protocol was approved by the University of Pennsylvania Institutional Animal Care and Use Committee. Tissue culture plates and coverslips were coated with Poly-D-lysine (Sigma) before addition of cells. Neurons were plated in 96-well plates (60,000 cells/cm^2). Cultures were maintained in Neurobasal medium supplemented with B27 and Glutamax (all from Invitrogen).
PFF treatment was performed at 7 DIV and cultures were incubated for a further 12 days prior to fixation and analysis. […] PFF concentrations are expressed as the total equivalent αSN monomer content in the preparation. […]
Cultured neurons were fixed by replacing media with warm PFA (4% in PBS containing 4% sucrose) for 15 min at RT. […] Image analysis and quantification was performed using the InCell Toolbox Analyzer software (GE Healthcare Life Sciences). The total integrated area for 81a immunopositivity was quantified for each sample and then normalized (divided) by the number of NeuN-positive objects in the fields examined.

Test [2] concerns differentiated SH-SY5Y cells treated with sonicated human αSN PFF. The experiment in a line: Differentiated SH-SY5Y cell model of αSN PFF pathology (pS129 immunoblot). The class given is cell-based. Conditions: 1 μM compound, 200 nM human PFF, 48 h; for total pS129 signal (words): relative to DMSO. As for the experimental part:
SH-SY5Y cells were differentiated using reduced serum (3%) media supplemented with 10 μM retinoic acid for 3 days and then changed to serum-free media supplemented with 10 ng/mL brain-derived neurotrophic factor for the remainder of the experiment. Stock αSN PFFs were diluted and sonicated as described previously. SH-SY5Y cultures were then treated with 200 nM PFF and PBS, DMSO, 1 μM drug compound (RO, BAY, or DEM), or 50 μM Baicalin. After 48 h, SH-SY5Y were washed with PBS and harvested in cold lysis buffer with protease and phosphatase inhibitors, as previously described. Approximately 15 μg of total protein was loaded onto a 4–20% Criterion TGX midi gel and probed using Syn1 (BD Biosciences, #610787; 1° 1:5000; 2° 1:10K) and pS^129 aSyn (abcam, ab59264; 1° 1:1000; 2° 1:5000) and a-tubulin (abcam, ab4074; 1° 1:1000; 2° 1:10K) page 19: Supplemental Figure 18. […] Differentiated SH-SY5Y cells were treated with PBS, vehicle (DMSO) or compounds with and without 200nM sonicated human αSN PFFs. […] These will be removed in subsequent densitometry analysis. (b) Replicates of PFF +/- compound treatment were ran for immunoblot analysis of pS129 immunoreactivity. (c) Densitometry analysis was performed using ImageLab from BioRad. Total pS129 signal (excluding the non- specific bands) was normalized to tubulin loading control. […] Quantification is normalized per lane to highlight change in the ratio of different species. Note, oligomers quantification is plotted relative to the right-y- axis. All statistical comparisons were to DMSO treatment using two-tailed t-test with * p<0.05; ** p<0.01; *** p<0.005.

The record followed here is publication PMC8238948, “Potent inhibitors of toxic alpha-synuclein identified via cellular time-resolved FRET biosensors” (NPJ Parkinson's Disease, 2021).

Entries after “also recorded” stand apart in the source; their conditions may differ. Counter-ions that a name gives are not always drawn.

`CN(C)[C@@H]1C(O)=C(C(N)=O)C(=O)[C@@]2(O)C(O)=C3C(=O)c4c(O)ccc(Cl)c4[C@@H](O)[C@H]3C[C@@H]12` [DEM, Demeclocycline HCl]: the “pS129 pathology staining (81a/NeuN)” value in test [1] is listed as “reduced the αSN pathology; also recorded: reduces the pS^129 phenotype”. Also, in test [2], the “HMW pS129 assemblies” value is on record as “increase HMW assemblies”, the “LMW oligomer pS129 fraction” value is given as “significantly reduced”, the “monomeric pS129 fraction” value was “significant reduction” and the “total pS129 signal (words)” value is reported as “non-significant change”.

For the molecule `Nc1ccc(-c2nc3ccc(-c4nc5ccc(N)cc5[nH]4)cc3[nH]2)cc1` [RO, Ro 90–7501], the “pS129 pathology staining (81a/NeuN)” value in test [1] is on record as “little to no effect”. In test [2], the “HMW pS129 assemblies” value is “increase HMW assemblies”, the “LMW oligomer pS129 fraction” value is on record as “significantly reduced”, the “monomeric pS129 fraction” value was “significant reduction” and the “total pS129 signal (words)” value is “significant reduction; also recorded: significant decrease”.

As for `COC(=O)C1=C(C)NC(C)=C([N+](=O)[O-])C1c1ccccc1C(F)(F)F` (racemic) [BAY, (±)-Bay K 8644], the “pS129 pathology staining (81a/NeuN)” value in test [1] is given as “reduced the αSN pathology; also recorded: reduces the pS^129 phenotype”. Further, in test [2], the “HMW pS129 assemblies” value is on record as “increase HMW assemblies”; the “LMW oligomer pS129 fraction” value is listed as “not BAY, reduce oligomers”; the “monomeric pS129 fraction” value is listed as “significant reduction”; the “total pS129 signal (words)” value was “significant increase”. In addition, in test [2] (listed as Bay), the “total pS129 signal (words)” value was “increased pS129 signal”.
